Assay results from patent US20080146617A1, “Methods of treating inflammatory diseases” (Roche Palo Alto LLC, priority 2006, published 2008).

Tests used:
Assay in all cases: KinomeScan kinase profiling
Format in all cases: binding
[1] = target: T1, AMPK-alpha1 (Homo sapiens, UniProt Q13131)
T1 construct: purchased Ambit Biosciences (San Diego, Calif.)

[2] = target: T2, AURKA (Homo sapiens, UniProt O14965)
T2 construct: purchased Ambit Biosciences (San Diego, Calif.)

[3] = target: T3, CLK2 (Homo sapiens, UniProt P49760)
T3 construct: purchased Ambit Biosciences (San Diego, Calif.)

[4] = target: T4, EPHA2 (Homo sapiens, UniProt P29317)
T4 construct: purchased Ambit Biosciences (San Diego, Calif.)

[5] = target: T5, JAK2(Kin.Dom2) (Homo sapiens, UniProt O60674)
T5 construct: JAK2(Kin.Dom2); purchased Ambit Biosciences (San Diego, Calif.)

[6] = target: T6, JNK2 (Homo sapiens, UniProt P45984)
T6 construct: purchased Ambit Biosciences (San Diego, Calif.)

[7] = target: T7, LCK (Homo sapiens, UniProt P06239)
T7 construct: purchased Ambit Biosciences (San Diego, Calif.)

[8] = target: T8, AAK1 (Homo sapiens, UniProt Q2M2I8)
T8 construct: purchased Ambit Biosciences (San Diego, Calif.)
Excerpt: (§1) The selectivity of a given CK1δ, CK1ε or CK1δ-CK1ε inhibitor compound can be determined by testing the compound against a panel of known kinases. An example of such a kinase profiling technology is the “KinomeScan” from Ambit Biosciences in which compounds can be screened for their modulatory activities against more than 200 known kinases.

[9] = target: T9, ABL2 (Homo sapiens, UniProt P42684)
T9 construct: purchased Ambit Biosciences (San Diego, Calif.)
Excerpt: as §1

[10] = target: T10, ACK1 (Homo sapiens, UniProt Q07912)
T10 construct: purchased Ambit Biosciences (San Diego, Calif.)
Excerpt: as §1

[11] = target: T11, AURKC (Homo sapiens, UniProt Q9UQB9)
T11 construct: purchased Ambit Biosciences (San Diego, Calif.)
Excerpt: as §1

[12] = target: T12, BLK (Homo sapiens, UniProt P51451)
T12 construct: purchased Ambit Biosciences (San Diego, Calif.)
Excerpt: as §1

[13] = target: T13, BTK (Homo sapiens, UniProt Q06187)
T13 construct: purchased Ambit Biosciences (San Diego, Calif.)
Excerpt: as §1

[14] = target: T14, CAMK1D (Homo sapiens, UniProt Q8IU85)
T14 construct: purchased Ambit Biosciences (San Diego, Calif.)
Excerpt: as §1

[15] = target: T15, CAMK1G (Homo sapiens, UniProt Q96NX5)
T15 construct: purchased Ambit Biosciences (San Diego, Calif.)
Excerpt: as §1

[16] = target: T16, CAMK2G (Homo sapiens, UniProt Q13555)
T16 construct: purchased Ambit Biosciences (San Diego, Calif.)
Excerpt: as §1

[17] = target: T17, CLK1 (Homo sapiens, UniProt P49759)
T17 construct: purchased Ambit Biosciences (San Diego, Calif.)
Excerpt: as §1

[18] = target: T18, DMPK (Homo sapiens, UniProt Q09013)
T18 construct: purchased Ambit Biosciences (San Diego, Calif.)
Excerpt: as §1

[19] = target: T19, EPHA4 (Homo sapiens, UniProt P54764)
T19 construct: purchased Ambit Biosciences (San Diego, Calif.)
Excerpt: as §1

[20] = target: T20, EPHA5 (Homo sapiens, UniProt P54756)
T20 construct: purchased Ambit Biosciences (San Diego, Calif.)
Excerpt: as §1

[21] = target: T21, EPHB1 (Homo sapiens, UniProt P54762)
T21 construct: purchased Ambit Biosciences (San Diego, Calif.)
Excerpt: as §1

[22] = target: T22, ERK2 (Homo sapiens, UniProt P28482)
T22 construct: purchased Ambit Biosciences (San Diego, Calif.)
Excerpt: as §1

[23] = target: T23, FES (Homo sapiens, UniProt P07332)
T23 construct: purchased Ambit Biosciences (San Diego, Calif.)
Excerpt: as §1

[24] = target: T24, FLT3 (Homo sapiens, UniProt P36888)
T24 construct: purchased Ambit Biosciences (San Diego, Calif.)
Excerpt: as §1

[25] = target: T25, FLT4 (Homo sapiens, UniProt P35916)
T25 construct: purchased Ambit Biosciences (San Diego, Calif.)
Excerpt: as §1

[26] = target: T26, HCK (Homo sapiens, UniProt P08631)
T26 construct: purchased Ambit Biosciences (San Diego, Calif.)
Excerpt: as §1

[27] = target: T27, IGF1R (Homo sapiens, UniProt P08069)
T27 construct: purchased Ambit Biosciences (San Diego, Calif.)
Excerpt: as §1

[28] = target: T28, JAK1(Kin.Dom1) (Homo sapiens, UniProt P23458)
T28 construct: JAK1(Kin.Dom1); purchased Ambit Biosciences (San Diego, Calif.)
Excerpt: as §1

[29] = target: T29, JNK1 (Homo sapiens, UniProt P45983)
T29 construct: purchased Ambit Biosciences (San Diego, Calif.)
Excerpt: as §1

[30] = target: T30, JNK3 (Homo sapiens, UniProt P53779)
T30 construct: purchased Ambit Biosciences (San Diego, Calif.)
Excerpt: as §1

[31] = target: T31, MAP3K4 (Homo sapiens, UniProt Q9Y6R4)
T31 construct: purchased Ambit Biosciences (San Diego, Calif.)
Excerpt: as §1

[32] = target: T32, PDGFRB (Homo sapiens, UniProt P09619)
T32 construct: purchased Ambit Biosciences (San Diego, Calif.)
Excerpt: as §1

[33] = target: T33, SRC (Homo sapiens, UniProt P12931)
T33 construct: purchased Ambit Biosciences
Excerpt: as §1

[34] = target: T34, SYK (Homo sapiens, UniProt P43405)
T34 construct: purchased Ambit Biosciences
Excerpt: as §1

[35] = target: T35, TRKA (Homo sapiens, UniProt P04629)
T35 construct: purchased Ambit Biosciences
Excerpt: as §1

[36] = target: T36, TTK (Homo sapiens, UniProt P33981)
T36 construct: purchased Ambit Biosciences
Excerpt: as §1

[37] = target: T37, VEGFR2 (Homo sapiens, UniProt P35968)
T37 construct: purchased Ambit Biosciences (San Diego, Calif.)
Excerpt: as §1

[38] = target: T38, PKAC-alpha (Homo sapiens, UniProt P17612)
T38 construct: purchased Ambit Biosciences (San Diego, Calif.)

[39] = target: T39, PTK6 (Homo sapiens, UniProt Q13882)
T39 construct: purchased Ambit Biosciences

T37 sequence (P35968 20-1356): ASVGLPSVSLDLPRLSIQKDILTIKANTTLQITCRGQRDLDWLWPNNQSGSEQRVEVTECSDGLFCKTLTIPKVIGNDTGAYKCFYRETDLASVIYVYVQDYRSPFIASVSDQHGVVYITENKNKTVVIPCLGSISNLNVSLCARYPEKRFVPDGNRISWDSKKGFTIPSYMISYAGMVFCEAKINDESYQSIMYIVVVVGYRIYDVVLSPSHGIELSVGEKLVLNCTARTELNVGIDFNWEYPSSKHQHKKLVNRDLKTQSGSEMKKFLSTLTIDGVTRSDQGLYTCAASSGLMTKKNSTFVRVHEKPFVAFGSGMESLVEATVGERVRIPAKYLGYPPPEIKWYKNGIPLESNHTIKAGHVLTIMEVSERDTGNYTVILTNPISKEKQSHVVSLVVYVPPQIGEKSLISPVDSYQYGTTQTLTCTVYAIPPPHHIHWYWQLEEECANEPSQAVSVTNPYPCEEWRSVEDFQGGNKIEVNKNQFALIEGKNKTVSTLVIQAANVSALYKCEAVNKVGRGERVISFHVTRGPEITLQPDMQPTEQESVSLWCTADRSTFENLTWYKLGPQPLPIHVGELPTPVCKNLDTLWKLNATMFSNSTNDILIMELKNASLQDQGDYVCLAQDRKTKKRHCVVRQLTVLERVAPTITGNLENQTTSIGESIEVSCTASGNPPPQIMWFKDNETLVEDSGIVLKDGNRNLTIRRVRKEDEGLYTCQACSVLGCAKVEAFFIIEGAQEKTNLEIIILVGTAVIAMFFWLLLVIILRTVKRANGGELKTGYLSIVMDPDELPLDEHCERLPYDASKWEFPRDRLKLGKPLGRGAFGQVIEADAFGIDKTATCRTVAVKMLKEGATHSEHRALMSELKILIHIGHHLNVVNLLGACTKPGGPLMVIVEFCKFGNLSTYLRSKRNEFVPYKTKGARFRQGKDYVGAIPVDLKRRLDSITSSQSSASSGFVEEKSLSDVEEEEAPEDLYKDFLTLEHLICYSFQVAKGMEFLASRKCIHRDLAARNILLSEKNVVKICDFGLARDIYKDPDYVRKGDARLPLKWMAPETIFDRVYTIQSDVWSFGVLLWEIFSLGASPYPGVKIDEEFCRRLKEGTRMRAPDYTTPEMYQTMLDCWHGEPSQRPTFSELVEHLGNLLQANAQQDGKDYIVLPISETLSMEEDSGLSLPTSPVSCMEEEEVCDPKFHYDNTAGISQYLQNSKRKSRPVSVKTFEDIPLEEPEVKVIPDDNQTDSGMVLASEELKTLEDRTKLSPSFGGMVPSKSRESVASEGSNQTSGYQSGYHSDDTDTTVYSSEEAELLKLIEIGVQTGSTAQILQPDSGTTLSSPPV
T17 sequence (P49759 whole entry): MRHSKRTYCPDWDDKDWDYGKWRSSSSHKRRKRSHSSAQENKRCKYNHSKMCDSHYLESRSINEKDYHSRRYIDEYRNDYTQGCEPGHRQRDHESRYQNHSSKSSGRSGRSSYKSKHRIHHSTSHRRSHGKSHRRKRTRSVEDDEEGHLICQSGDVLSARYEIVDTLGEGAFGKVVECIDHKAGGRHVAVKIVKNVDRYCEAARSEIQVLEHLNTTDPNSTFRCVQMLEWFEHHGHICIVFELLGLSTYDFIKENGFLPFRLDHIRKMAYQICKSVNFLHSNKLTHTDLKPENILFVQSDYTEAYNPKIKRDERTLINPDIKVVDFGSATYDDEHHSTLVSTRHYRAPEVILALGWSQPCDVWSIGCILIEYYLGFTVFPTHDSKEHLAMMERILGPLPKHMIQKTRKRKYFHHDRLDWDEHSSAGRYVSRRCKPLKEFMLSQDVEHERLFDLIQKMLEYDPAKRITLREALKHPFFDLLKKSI
T8 sequence (Q2M2I8 whole entry): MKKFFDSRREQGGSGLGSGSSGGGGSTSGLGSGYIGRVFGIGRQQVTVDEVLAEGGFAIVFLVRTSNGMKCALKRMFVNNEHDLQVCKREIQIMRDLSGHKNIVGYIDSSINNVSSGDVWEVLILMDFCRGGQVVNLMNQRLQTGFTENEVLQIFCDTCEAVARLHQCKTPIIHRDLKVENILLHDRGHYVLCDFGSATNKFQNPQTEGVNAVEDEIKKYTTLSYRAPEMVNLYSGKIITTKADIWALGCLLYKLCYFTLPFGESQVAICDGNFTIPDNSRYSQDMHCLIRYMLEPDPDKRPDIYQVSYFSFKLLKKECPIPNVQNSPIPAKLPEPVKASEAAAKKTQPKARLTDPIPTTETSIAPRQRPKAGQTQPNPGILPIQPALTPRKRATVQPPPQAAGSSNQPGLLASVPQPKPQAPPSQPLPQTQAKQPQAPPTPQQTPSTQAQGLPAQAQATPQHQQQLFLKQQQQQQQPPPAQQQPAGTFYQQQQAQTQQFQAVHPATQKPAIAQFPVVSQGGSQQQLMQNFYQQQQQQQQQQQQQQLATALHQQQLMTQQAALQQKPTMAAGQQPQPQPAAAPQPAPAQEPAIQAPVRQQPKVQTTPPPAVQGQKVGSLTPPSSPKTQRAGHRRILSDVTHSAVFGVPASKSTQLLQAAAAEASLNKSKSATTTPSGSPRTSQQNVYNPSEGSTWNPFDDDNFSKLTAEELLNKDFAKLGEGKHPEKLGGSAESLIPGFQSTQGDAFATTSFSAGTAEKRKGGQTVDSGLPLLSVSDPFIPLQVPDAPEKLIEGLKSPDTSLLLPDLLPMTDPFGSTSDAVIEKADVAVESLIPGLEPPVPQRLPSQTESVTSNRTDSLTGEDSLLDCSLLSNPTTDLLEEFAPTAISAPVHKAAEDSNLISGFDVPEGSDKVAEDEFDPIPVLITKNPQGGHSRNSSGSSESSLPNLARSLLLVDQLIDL
T20 sequence (P54756 25-1037): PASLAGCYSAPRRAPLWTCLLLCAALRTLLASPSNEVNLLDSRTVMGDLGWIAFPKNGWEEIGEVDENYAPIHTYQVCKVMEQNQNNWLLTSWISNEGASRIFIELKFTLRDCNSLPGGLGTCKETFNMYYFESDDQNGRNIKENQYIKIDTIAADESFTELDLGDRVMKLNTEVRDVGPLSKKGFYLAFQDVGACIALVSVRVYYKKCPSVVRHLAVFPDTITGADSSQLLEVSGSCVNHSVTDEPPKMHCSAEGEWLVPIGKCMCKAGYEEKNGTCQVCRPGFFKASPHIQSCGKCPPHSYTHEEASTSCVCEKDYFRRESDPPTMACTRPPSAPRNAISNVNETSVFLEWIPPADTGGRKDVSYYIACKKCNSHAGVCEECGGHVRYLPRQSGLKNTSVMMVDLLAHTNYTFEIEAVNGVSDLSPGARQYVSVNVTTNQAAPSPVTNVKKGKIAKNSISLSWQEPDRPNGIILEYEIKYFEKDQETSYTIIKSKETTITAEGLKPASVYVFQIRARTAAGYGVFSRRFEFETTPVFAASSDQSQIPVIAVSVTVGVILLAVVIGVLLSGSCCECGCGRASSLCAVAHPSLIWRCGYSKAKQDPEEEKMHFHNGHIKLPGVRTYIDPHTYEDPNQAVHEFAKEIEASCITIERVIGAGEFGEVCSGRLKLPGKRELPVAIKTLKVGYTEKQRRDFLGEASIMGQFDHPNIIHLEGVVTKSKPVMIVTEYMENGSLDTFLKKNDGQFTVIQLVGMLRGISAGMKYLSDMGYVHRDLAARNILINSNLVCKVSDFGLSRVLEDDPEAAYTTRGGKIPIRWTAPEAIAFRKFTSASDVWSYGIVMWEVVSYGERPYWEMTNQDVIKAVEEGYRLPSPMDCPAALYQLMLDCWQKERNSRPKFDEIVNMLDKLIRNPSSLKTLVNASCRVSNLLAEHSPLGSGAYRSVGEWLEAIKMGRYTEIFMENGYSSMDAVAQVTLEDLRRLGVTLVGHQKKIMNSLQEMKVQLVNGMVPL
T36 sequence (P33981 whole entry): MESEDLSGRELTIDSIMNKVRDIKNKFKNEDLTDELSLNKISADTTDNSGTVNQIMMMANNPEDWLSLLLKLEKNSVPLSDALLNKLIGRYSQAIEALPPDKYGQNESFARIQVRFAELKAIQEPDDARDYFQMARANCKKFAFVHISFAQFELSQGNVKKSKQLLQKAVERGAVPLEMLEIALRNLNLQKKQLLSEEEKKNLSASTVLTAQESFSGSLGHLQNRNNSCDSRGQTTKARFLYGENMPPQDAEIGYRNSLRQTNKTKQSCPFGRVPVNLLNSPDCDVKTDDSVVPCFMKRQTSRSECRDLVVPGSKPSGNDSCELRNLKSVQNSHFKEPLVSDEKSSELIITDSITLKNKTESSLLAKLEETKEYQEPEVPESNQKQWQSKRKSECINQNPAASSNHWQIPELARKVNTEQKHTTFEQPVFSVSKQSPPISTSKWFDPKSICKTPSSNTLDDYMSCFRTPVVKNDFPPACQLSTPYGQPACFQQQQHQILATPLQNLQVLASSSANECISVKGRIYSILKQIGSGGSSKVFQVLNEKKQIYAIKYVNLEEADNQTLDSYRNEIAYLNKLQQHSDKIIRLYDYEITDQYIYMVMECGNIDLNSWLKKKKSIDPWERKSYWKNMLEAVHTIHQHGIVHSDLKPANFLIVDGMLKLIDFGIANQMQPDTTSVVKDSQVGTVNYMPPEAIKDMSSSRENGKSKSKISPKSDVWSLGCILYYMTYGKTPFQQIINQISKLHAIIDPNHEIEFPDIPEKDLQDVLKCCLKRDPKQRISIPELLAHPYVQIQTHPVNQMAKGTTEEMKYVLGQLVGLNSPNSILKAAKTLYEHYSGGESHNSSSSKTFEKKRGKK
T11 sequence (Q9UQB9 whole entry): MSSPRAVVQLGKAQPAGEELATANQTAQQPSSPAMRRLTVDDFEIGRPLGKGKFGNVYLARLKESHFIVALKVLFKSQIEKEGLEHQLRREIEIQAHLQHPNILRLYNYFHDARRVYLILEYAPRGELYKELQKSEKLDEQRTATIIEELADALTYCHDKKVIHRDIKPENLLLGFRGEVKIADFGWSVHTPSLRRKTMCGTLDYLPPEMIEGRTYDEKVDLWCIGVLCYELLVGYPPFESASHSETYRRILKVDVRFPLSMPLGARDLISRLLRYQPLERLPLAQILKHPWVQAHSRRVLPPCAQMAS

| SMILES | inhibition at 10 µM [1] [%] | inhibition at 10 µM [2] [%] | inhibition at 10 µM [3] [%] | inhibition at 10 µM [4] [%] | inhibition at 10 µM [5] [%] | inhibition at 10 µM [6] [%] | inhibition at 10 µM [7] [%] | inhibition at 10 µM [8] [%] | inhibition at 10 µM [9] [%] | inhibition at 10 µM [10] [%] | inhibition at 10 µM [11] [%] | inhibition at 10 µM [12] [%] | inhibition at 10 µM [13] [%] | inhibition at 10 µM [14] [%] | inhibition at 10 µM [15] [%] | inhibition at 10 µM [16] [%] | inhibition at 10 µM [17] [%] | inhibition at 10 µM [18] [%] | inhibition at 10 µM [19] [%] | inhibition at 10 µM [20] [%] | further results |
| --- | --- | --- | --- | --- | --- | --- | --- | --- | --- | --- | --- | --- | --- | --- | --- | --- | --- | --- | --- | --- | --- |
| NC(=O)c1ccc(-c2nc(-c3ccc4c(c3)OCCO4)c(-c3ccccn3)[nH]2)cc1 [D4476, 4-[4-(2,3-Dihydro-benzo[1,4]dioxin-6-yl)-5-pyridin-2-yl-1H-imidazol-2-yl]benzamide] | < 50 | < 50 | < 50 | < 50 | < 50 | < 50 | < 50 | < 50 | < 50 | < 50 | < 50 | < 50 | < 50 | < 50 | < 50 | < 50 | < 50 | < 50 | < 50 | < 50 | inhibition at 10 µM [21]: < 50%; inhibition at 10 µM [22]: < 50%; inhibition at 10 µM [23]: < 50%; inhibition at 10 µM [24]: < 50%; inhibition at 10 µM [25]: < 50%; inhibition at 10 µM [26]: < 50%; inhibition at 10 µM [27]: < 50%; inhibition at 10 µM [28]: < 50%; inhibition at 10 µM [29]: < 50%; inhibition at 10 µM [30]: < 50%; inhibition at 10 µM [31]: < 50%; inhibition at 10 µM [32]: < 50%; inhibition at 10 µM [33]: < 50%; inhibition at 10 µM [34]: < 50%; inhibition at 10 µM [35]: < 50%; inhibition at 10 µM [36]: < 50%; inhibition at 10 µM [37]: < 50%; inhibition at 10 µM [38]: < 50%; inhibition at 10 µM [39]: < 50% |
| NC(=O)c1ccc(-c2nc(-c3ccc4c(c3)OCO4)c(-c3ccccn3)[nH]2)cc1 [SB431542, 4-(4-benzo-[1,3]dioxol-5-yl-5-pyridin-2-yl-1H-imidazol-2-yl)benzamide] | < 50 | < 50 | < 50 | < 50 | < 50 | < 50 | < 50 | < 50 | < 50 | < 50 | < 50 | < 50 | < 50 | < 50 | < 50 | < 50 | < 50 | < 50 | < 50 | < 50 | inhibition at 10 µM [21]: < 50%; inhibition at 10 µM [22]: < 50%; inhibition at 10 µM [23]: < 50%; inhibition at 10 µM [24]: < 50%; inhibition at 10 µM [25]: < 50%; inhibition at 10 µM [26]: < 50%; inhibition at 10 µM [27]: < 50%; inhibition at 10 µM [28]: < 50%; inhibition at 10 µM [29]: < 50%; inhibition at 10 µM [30]: < 50%; inhibition at 10 µM [31]: < 50%; inhibition at 10 µM [32]: < 50%; inhibition at 10 µM [33]: < 50%; inhibition at 10 µM [34]: < 50%; inhibition at 10 µM [35]: < 50%; inhibition at 10 µM [36]: < 50%; inhibition at 10 µM [37]: < 50%; inhibition at 10 µM [38]: < 50%; inhibition at 10 µM [39]: < 50% |
